Source: patent publication US11739098B2 (BRISTOL-MYERS SQUIBB COMPANY, priority 2017, dated 2023)
pIC50: −log10 of the molar value.

Experiments:
Format in all cases: cell-based
human TLR7 = target: T1, human TLR7 (Homo sapiens, UniProt Q9NYK1); test: TLR7 inhibition reporter assay (HEK-Blue cells, SEAP reporter, gardiquimod stimulation); settings: HEK-Blue cells overexpressing human TLR7, SEAP reporter, gardiquimod 7.5 μM
T1 construct: host or cells: HEK-Blue cells (HEK293-derived reporter line)
T1 sequence (Q9NYK1 27-1049): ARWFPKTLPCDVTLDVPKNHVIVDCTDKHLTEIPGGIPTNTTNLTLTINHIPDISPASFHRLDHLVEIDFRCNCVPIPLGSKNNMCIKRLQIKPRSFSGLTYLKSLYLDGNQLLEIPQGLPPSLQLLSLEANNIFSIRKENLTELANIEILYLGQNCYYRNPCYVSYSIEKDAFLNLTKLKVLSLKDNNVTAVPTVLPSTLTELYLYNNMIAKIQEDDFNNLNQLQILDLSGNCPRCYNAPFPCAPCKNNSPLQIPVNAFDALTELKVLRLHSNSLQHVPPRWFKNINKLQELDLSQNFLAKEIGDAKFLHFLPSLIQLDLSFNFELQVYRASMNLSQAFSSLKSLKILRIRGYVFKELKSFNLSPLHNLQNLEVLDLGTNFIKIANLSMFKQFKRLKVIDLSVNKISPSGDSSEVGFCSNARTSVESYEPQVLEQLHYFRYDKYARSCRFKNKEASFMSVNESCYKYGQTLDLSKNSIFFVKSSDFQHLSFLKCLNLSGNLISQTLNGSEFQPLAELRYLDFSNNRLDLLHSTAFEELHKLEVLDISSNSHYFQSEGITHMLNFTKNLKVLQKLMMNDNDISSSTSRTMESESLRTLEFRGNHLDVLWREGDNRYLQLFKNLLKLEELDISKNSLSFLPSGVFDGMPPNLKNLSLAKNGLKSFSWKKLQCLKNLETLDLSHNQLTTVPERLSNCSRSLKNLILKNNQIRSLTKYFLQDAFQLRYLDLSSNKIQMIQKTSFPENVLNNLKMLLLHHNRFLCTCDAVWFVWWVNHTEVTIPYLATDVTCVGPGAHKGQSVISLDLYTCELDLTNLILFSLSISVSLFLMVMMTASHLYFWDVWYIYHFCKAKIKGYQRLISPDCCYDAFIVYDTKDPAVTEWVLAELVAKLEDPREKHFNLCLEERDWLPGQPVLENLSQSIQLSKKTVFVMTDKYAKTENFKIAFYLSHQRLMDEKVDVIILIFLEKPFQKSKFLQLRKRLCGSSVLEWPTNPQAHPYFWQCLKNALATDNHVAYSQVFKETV
How it was run: (§1)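 HEK-Blue cells overexpressing human TLR7, TLR8 or TLR9 (NF-κB/AP-1-driven SEAP) pre-treated 30 min at room temperature with compound (0.05 nM–50 μM), then stimulated with gardiquimod 7.5 μM (TLR7), R848 15.9 μM (TLR8) or ODN2006 5 nM (TLR9). SEAP read colorimetrically after 22 h at 37 °C; % inhibition calculated.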

human TLR8 = target: T2, human TLR8 (Homo sapiens, UniProt Q9NR97); test: TLR8 inhibition reporter assay (HEK-Blue cells, SEAP reporter, R848 stimulation); settings: HEK-Blue cells overexpressing human TLR8, SEAP reporter, R848 15.9 μM
T2 construct: host or cells: HEK-Blue cells (HEK293-derived reporter line)
T2 sequence (Q9NR97 27-1041): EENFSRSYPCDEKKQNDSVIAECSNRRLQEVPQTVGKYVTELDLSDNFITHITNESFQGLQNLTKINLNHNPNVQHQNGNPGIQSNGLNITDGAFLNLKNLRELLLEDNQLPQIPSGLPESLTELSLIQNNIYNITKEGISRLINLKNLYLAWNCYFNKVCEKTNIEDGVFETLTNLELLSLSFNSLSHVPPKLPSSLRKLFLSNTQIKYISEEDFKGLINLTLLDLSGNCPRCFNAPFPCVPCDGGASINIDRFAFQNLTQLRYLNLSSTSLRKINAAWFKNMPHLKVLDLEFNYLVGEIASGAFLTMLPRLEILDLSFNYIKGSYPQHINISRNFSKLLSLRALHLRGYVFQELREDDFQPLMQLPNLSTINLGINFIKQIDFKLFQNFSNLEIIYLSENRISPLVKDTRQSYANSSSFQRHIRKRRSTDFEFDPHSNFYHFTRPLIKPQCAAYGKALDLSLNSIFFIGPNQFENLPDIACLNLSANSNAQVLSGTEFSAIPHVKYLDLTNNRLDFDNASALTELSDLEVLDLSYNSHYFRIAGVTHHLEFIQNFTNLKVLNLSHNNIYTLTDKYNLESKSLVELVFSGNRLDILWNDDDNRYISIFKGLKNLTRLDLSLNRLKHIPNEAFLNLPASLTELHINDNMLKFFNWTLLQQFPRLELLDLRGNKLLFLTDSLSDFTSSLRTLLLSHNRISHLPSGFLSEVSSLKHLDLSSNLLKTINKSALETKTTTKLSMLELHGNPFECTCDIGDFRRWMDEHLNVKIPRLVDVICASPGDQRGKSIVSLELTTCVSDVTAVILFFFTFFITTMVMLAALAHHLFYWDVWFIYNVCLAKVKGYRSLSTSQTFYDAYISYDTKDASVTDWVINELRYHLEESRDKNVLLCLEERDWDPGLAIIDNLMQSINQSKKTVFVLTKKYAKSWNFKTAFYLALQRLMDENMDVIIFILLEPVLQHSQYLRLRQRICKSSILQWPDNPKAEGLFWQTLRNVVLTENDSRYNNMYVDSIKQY
How it was run: as §1

human TLR9 = target: T3, human TLR9 (Homo sapiens, UniProt Q9NR96); test: TLR9 inhibition reporter assay (HEK-Blue cells, SEAP reporter, ODN2006 stimulation); settings: HEK-Blue cells overexpressing human TLR9, SEAP reporter, ODN2006 5 nM
T3 construct: host or cells: HEK-Blue cells (HEK293-derived reporter line)
T3 sequence (Q9NR96 26-1032): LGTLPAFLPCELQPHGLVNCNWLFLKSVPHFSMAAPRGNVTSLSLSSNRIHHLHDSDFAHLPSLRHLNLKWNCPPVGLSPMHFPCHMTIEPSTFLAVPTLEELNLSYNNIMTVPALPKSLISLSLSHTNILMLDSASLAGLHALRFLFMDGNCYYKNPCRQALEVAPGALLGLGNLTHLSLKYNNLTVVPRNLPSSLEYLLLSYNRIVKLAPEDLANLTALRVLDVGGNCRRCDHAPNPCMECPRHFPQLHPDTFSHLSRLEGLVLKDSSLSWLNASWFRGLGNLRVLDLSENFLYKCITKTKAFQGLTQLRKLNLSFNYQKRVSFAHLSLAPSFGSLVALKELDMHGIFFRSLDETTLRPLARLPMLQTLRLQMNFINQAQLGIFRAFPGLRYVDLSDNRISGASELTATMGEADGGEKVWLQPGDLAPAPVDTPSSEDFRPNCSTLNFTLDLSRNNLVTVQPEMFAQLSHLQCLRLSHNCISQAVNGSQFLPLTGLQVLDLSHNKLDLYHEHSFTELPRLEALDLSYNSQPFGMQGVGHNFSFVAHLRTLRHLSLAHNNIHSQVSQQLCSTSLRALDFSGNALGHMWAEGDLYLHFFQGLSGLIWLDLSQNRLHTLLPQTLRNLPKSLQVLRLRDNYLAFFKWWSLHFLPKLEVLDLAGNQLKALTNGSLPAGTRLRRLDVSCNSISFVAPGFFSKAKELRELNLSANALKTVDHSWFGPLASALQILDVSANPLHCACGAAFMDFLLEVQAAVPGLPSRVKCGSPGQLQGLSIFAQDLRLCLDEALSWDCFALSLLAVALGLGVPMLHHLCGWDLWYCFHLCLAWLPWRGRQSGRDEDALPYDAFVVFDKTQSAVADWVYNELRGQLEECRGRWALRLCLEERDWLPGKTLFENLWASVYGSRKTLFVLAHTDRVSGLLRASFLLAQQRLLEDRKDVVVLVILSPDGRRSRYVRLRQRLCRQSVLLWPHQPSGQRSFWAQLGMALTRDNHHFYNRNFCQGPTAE
How it was run: as §1

| Compound | pIC50 (human TLR7) | pIC50 (human TLR8) | pIC50 (human TLR9) |
| --- | --- | --- | --- |
| Cc1cc(-c2[nH]c3ccc(C4CCN(CC(=O)N(C)C)CC4)cc3c2C(C)C)cc2ncnn12 [Example 324, 2-(4-(3-isopropyl-2-(5-methyl-[1,2,4]triazolo[1,5-a]pyridin-7-yl)-1H-indol-5-yl)piperidin-1-yl)-N,N-dimethylacetamide] | > 7.00 | > 7.00 | 4.30 to 6.00 |
| CC(C)c1c(-c2cnc3ncnn3c2)[nH]c2ccc(C3CCN(C4COC4)CC3)cc12 [Example 721, 6-(3-isopropyl-5-(1-(oxetan-3-yl)piperidin-4-yl)-1H-indol-2-yl)-[1,2,4]triazolo[1,5-a]pyrimidine] | > 7.00 | 6.00 to 7.00 | 4.30 to 6.00 |
| CNC(=O)CN1CCC(c2ccc3[nH]c(-c4cnc5c(cnn5C)c4)c(C(C)C)c3c2)CC1 [Example 366, 2-(4-(3-isopropyl-2-(1-methyl-1H-pyrazolo[3,4-b]pyridin-5-yl)-1H-indol-5-yl)piperidin-1-yl)-N-methylacetamide] | > 7.00 | > 7.00 | 4.30 to 6.00 |
| Cc1nnn2ccc(-c3[nH]c4ccc(C5CCN(Cc6ncn(C)n6)CC5)cc4c3C(C)C)cc12 [Example 889, 5-(3-isopropyl-5-(1-((1-methyl-1H-1,2,4-triazol-3-yl)methyl)piperidin-4-yl)-1H-indol-2-yl)-3-methyl-[1,2,3]triazolo[1,5-a]pyridine] | > 7.00 | > 7.00 | 4.30 to 6.00 |
| CC(C)c1c(-c2ccnc3[nH]ncc23)[nH]c2ccc(C3CCN(Cc4ccc(OCCCN(C)C)cc4)CC3)cc12 [Example 965, 3-(4-((4-(3-isopropyl-2-(1H-pyrazolo[3,4-b]pyridin-4-yl)-1H-indol-5-yl)piperidin-1-yl)methyl)phenoxy)-N,N-dimethylpropan-1-amine] | > 7.00 | > 7.00 | 6.00 to 7.00 |
| CC(C)c1c(-c2ccnc3[nH]ncc23)[nH]c2cc(C(F)(F)F)c(C3CCN(CC4CCNC4)CC3)cc12 (stereo not drawn) [Example 851, 4-(3-isopropyl-5-(1-(pyrrolidin-3-ylmethyl)piperidin-4-yl)-6-(trifluoromethyl)-1H-indol-2-yl)-1H-pyrazolo[3,4-b]pyridine] | > 7.00 | 6.00 to 7.00 | 6.00 to 7.00 |

Second part, the compound after the results:

| pIC50 (human TLR7) | pIC50 (human TLR8) | pIC50 (human TLR9) | Compound |
| --- | --- | --- | --- |
| > 7.00 | > 7.00 | 6.00 to 7.00 | COc1cc(-c2[nH]c3ccc(C4CCN(CC(C)(C)O)CC4)cc3c2C(C)C)cn2ccnc12 [Example 775, 1-(4-(3-isopropyl-2-(8-methoxyimidazo[1,2-a]pyridin-6-yl)-1H-indol-5-yl)piperidin-1-yl)-2-methylpropan-2-ol] |
| > 7.00 | > 7.00 | 4.30 to 6.00 | Cc1c(-c2[nH]c3ccc(C4CCN(CC(C)(C)O)CC4)cc3c2C(C)C)cn2ccnc2c1Cl [Example 772, 1-(4-(2-(8-chloro-7-methylimidazo[1,2-a]pyridin-6-yl)-3-isopropyl-1H-indol-5-yl)piperidin-1-yl)-2-methylpropan-2-ol] |
| > 7.00 | 4.30 to 6.00 | 4.30 to 6.00 | Cc1cc2cc(-c3[nH]c4ccc(C5CCNCC5)cc4c3C(C)C)ccn2n1 [Example 145, 5-(3-isopropyl-5-(piperidin-4-yl)-1H-indol-2-yl)-2-methylpyrazolo[1,5-a]pyridine] |
| > 7.00 | > 7.00 | 6.00 to 7.00 | CCc1c(C)c(-c2[nH]c3ccc(C4CCNCC4)cc3c2C(C)C)cn2ccnc12 [Example 272, 8-ethyl-6-(3-isopropyl-5-(piperidin-4-yl)-1H-5 indol-2-yl)-7-methylimidazo[1,2-a]pyridine] |
| > 7.00 | > 7.00 | 4.30 to 6.00 | CC(C)c1c(-c2cc(F)c3nccn3c2)[nH]c2ccc(C3CCN(C(=O)CN(C)C)CC3)cc12 [Example 544, 2-(dimethylamino)-1-(4-(2-(8-fluoroimidazo[1,2-a]pyridin-6-yl)-3-isopropyl-1H-indol-5-yl)piperidin-1-yl)ethan-1-one] |
